According to patent US5674864A, “N-substituted derivatives of α-mercapto alkylamines, their preparation process and the intermediates obtained, their use as medicaments and the compositions containing them” (Roussel Uclaf, priority 1990, dated 1997):

Columns and labels:
[1] = Stretchings caused by acetic acid in a mouse (analgesic activity); assay type: in vivo; conditions: 0.25 h, PO, half-an-hour before intraperitoneal acetic acid, 15 minutes observation, read-out: DA50 (dose which allows a decrease of 50% in the number of stretchings)
Method: 2) Study of analgesic activity in a mouse Stretchings caused by acetic acid in a mouse
The test used was based on the fact indicated by KOSTER, et al [Fed. Proc. (1959), Vol. 1B, p. 412] according to which the intraperitoneal injection of acetic acid causes, in a mouse, repeated stretching and twisting movements which can persist for more than 6 hours. Analgesics prevent or lessen this syndrome which can be considered as the outward display of a widespread abdominal pain. A 1% solution of acetic acid in water was used and was administered at a volume of 10 ml/kg. The studied product was administered by buccal route half-an-hour before the acetic acid injection, the mice having gone without food for at least 6 hours. The stretchings were observed and counted for Each mouse for an observation period of 15 minutes. The results were expressed by means of the DA50, that is the dose which allows a decrease of 50% in the number of stretchings to be obtained relative to the control animals.

enkephalinase = target: T1, enkephalinase (Rattus norvegicus, UniProt P07861); experiment: Determination of the enkephalinase inhibiting effect; assay type: biochemical; conditions: renal membrane fraction of a rat; substrate Succinyl-Ala-Ala-Phe-amino-methylcoumarine; 37° C., 30 minutes, pH 7.5
T1 construct: from tissue; host or cells: rat kidney, renal membrane fraction solubilised with octyl beta-D-glucopyranoside (100,000 g supernatant)
T1 sequence (P07861 1-750): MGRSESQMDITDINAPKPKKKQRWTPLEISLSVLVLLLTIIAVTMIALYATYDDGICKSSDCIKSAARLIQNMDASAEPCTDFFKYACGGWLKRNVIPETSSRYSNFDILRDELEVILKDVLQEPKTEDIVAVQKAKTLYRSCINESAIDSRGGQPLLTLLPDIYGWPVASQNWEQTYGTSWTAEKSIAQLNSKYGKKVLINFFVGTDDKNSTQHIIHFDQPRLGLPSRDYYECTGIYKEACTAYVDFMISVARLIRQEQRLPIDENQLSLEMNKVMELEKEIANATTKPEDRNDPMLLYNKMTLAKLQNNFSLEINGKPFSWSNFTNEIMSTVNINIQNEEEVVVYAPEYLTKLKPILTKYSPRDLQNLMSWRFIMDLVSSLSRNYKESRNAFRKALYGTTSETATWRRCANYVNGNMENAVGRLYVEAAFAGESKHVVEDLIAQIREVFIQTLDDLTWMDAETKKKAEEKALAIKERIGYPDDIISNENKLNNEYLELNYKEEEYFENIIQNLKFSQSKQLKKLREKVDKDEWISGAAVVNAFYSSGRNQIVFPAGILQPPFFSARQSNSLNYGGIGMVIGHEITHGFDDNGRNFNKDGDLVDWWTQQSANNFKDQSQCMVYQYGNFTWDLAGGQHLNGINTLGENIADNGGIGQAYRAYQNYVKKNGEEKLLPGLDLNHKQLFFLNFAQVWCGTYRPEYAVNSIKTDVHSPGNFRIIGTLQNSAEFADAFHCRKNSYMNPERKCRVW
Method: 1) Determination of the enkephalinase inhibiting effect
The enkephalinase activity was determined from a renal membrane fraction of a rat. The kidneys were removed on ice and homogenized in a HEPES 0.05M pH 7.5 buffer containing magnesium chloride (50 times the volume). After a first centrifugation at 1,500 g, the specific fraction was obtained from a centrifugation at 15,000 g for 20 minutes. The deposit was then washed and suspended in a HEPES buffer and kept at -20° C. An aliquot of this membrane preparation was put in the presence of octyl beta-D-glucopyranoside (50 mM as final […]) for 15 minutes at 4° C. After centrifugation at 100,000 g for one hour, the supernatant was removed and frozen in aliqots at -20° C. The concentration of proteins was determined by the method using Comassie's blue.
An aliquot of the protein fraction thus prepared was preincubated at 25° C. for 10 minutes in a HEPES 0.05M pH 7.5 buffer or in the presence of the product to be studied. The substrate added was a non-natural enkephalin of formula Succinyl-Ala-Ala-Phe-amino-methylcoumarine (reference 1) (40mM as final concentration). The incubation continued at 37° C. for 30 minutes and then the reaction was stopped by heating to 95° C. for 5 minutes and each incubate was centrifuged. A solution of amino peptidase M (4 mM as final concentration) and thiorphan (reference 2) (10^-5 M) was added to the supernatant and the mixture was taken to 37° C. for one hour. The reaction was stopped as previously described and the fluorescence of 7-amino-methyl-coumarine produced was determined. The effect of the products to be tested was determined by calculating the IC50, the concentration which inhibited the hydrolysis of the substrate by 50%.
Reference 1: R. A. Munford, P. A. Pierzchala, A-W Strauss and M. Zimmerman, Purification of a membrane-bound metalloendo peptidase from porcine kidney that degrades peptides hormones. Proc. Natl. Acad. Sci 78, No. 11, p. 6623.
Reference 2: Inhibitor of enkephalinase described in Example 20 of French Patent No. 2,480,747.

Hot-plate test = assay type: in vivo; conditions: Mus musculus, 0.5 h, po, male mice, plate at 56° C., 30 minutes after oral administration; for ED50: read-out: DA50 (dose which increased the reaction time by 50%); for ED100: read-out: DA100 (dose which increased the reaction time by 100%)
Method: Male mice weighing 22 g were placed individually on a copper plate maintained at 56° C. by a thermostatically-controlled water bath. […] The reaction time to the heat stimulus was noted and only animals reacting within 4.5 and 6.5 seconds were retained. The reaction time to the pain was measured 30 minutes after oral administration. The variations in the reaction time were expressed as a percentage of the initial time. The DA50 and DA100, or doses which increased the reaction time by 50 and 100%, taking into account variations in the control group, were determined by a graph or by the method of the least squares.

| SMILES | ED50 [1] | IC50 (enkephalinase) | ED50 (Hot-plate test) | ED100 (Hot-plate test) |
| --- | --- | --- | --- | --- |
| CONC(=O)NC(CSC(C)=O)Cc1ccccc1 (stereo not drawn) [Example 1, S-[2-(3-methoxy-ureido)-3-phenyl-propyl]-ethanethioate] | 71 mg/kg | 87 nM |  |  |
| CCCN(CCC)C(=O)NC(CSC(C)=O)Cc1ccccc1 (stereo not drawn) [Example 17, S-[2-[3-bis(propyl)-ureido]-3-phenyl-propyl]-ethanethioate] |  | 48 nM |  |  |
| CC(=O)SCC(Cc1ccccc1)NC(=O)Nc1ccccc1 (stereo not drawn) [Example 15, S-[2-(3-phenyl-ureido)-3-phenylpropyl]ethanethioate] |  | 100 nM |  |  |
| O=C(Nc1ccccc1)NC(CS)Cc1ccccc1 (single isomer, unassigned; (+)) [Example 16] | 50 mg/kg | 70 nM |  |  |
| CN(O)C(=O)NC(CS)Cc1ccccc1 (single isomer, unassigned; (+)) [Example 6, (+) N-hydroxy-N'-[2-mercapto-1-(phenylmethyl)-ethyl]-N-methyl urea] |  | 3.5 nM |  |  |
| COC(=O)CNC(=O)NC(CSC(C)=O)Cc1ccccc1 (stereo not drawn) [Example 11, Methyl N-[[[2-(acetylthio)-1-(phenylmethyl)-ethyl]-amino]-carbonyl]-glycinate] | 85 mg/kg |  | 100 mg/kg |  |
| CCCN(CCC)C(=O)NC(CS)Cc1ccccc1 (single isomer, unassigned; (+)) [Example 18, (+) N,N-dipropyl-N'-[2-mercapto-1-(phenylmethyl)-ethyl]urea] | 33 mg/kg | 180 nM | 33 mg/kg | 100 mg/kg |
| CC(=O)SCC(Cc1ccccc1)NC(=O)N(C)O (stereo not drawn) [Example 5] |  |  | 100 mg/kg | 200 mg/kg |
